We go through two molecules from US8986758B2, “Method for extracting a traditional herbal medicine component using a polished-rice steaming method” (Amorepacific Corporation, priority 2009, dated 2015).

The term inhibition denotes how much of the control response was suppressed.

The subject of data set [1] is C57BL/6 mouse-derived pigment cells (Mel-Ab cells). Description: Effect of inhibiting melanin production using mouse pigment cells (Dooley's method). It is filed as cell-based. Particulars: 72 h, each sample at 10 ppm, Mel-Ab cells cultured 3 days, absorbance at 400 nm. On the procedure:
C57BL/6 mouse-derived pigment cells (Mel-Ab cells) (Dooley, T. P. et al., Skin pharmacol, 7, pp. 188-200) are cultured in a DMEM ([…]), to which 10% fetal bovine serum, 100 nM 12-O-tetradecanoylphorbol-13-acetate and 1 nM cholera toxin are added, at 37° C. under 5% CO2. The cultured Mel-Ab cells are released by using 0.25% trypsin-EDTA and incubated on a 24-well plate at a concentration of 10^5 cells/well. From the next day, each test sample is added to culture the cells continuously for 3 days.
The test samples used herein include hydroquinone, the extract of traditional herbal medicine of Comparative Example 1 and the extract of traditional herbal medicine obtained by polished-rice steaming method according to Example 1. Each sample is used at a concentration of 10 ppm. Hydroquinone is used as a positive control. Then, the culture medium is removed and the cells are washed with phosphate buffered saline (PBS). The cells are subjected to cell lysis using 1N sodium hydroxide and absorbance is determined at 400 nm. The absorbance measurement is used to calculate % inhibition of melanin production according to the following Mathematical Formula 1. The results are shown in the following Table 1 (Dooley's method). % Inhibition of melanin production=100−{(absorbance of each sample/absorbance of control)×100} [Mathematical Formula 1]

A further data set relates to skin. In words: Irritation test on panels sensitive to irritation. It is filed as in vivo. An excerpt: Particularly, 15 panels sensitive to irritation, such as stinging, burning, etc., are subjected to a test for determining irritation feeling, including stinging, itch and dazzling. […] The results are shown in the following Table 2. <Evaluation Criteria> 0-0.4: No irritation 0.5-1.0: slight irritation 1.1-2.0: mild irritation 2.1-3.0: severe irritation

[2] abbreviates: grade 0 to 3.0, 0.5 mL applied onto skin, 15 panels, 0-0.4 no, 0.5-1.0 slight, 1.1-2.0 mild, 2.1-3.0 severe irritation.

Take `Oc1ccc(O)cc1` [Hydroquinone, hydroquinone]: in data set [1], at 10 ppm the inhibition was 58.9%.
`O=c1cc(CO)occ1O` [Kojic acid, kojic acid] showed an Average in the data set on skin (average of stinging and burning grades, grade 0 to 3.0, 0-0.4 no, 0.5-1.0 slight irritation) of 0.68. In addition, in the data set with skin (setting [2]), the Burning was determined as 0.50 and the Stinging is given as 0.85. In addition, in the data set on skin (summary of Table 2, 0.5 mL applied onto skin), the “irritation (in words)” value was “perceptible degree of irritation”.
